Measured values: patent US11332470B2, “CXCR4 inhibitors and uses thereof” (X4 Pharmaceuticals, Inc., priority 2016, dated 2022)

Legend:
[1] = molecular target: T1, CXCR4 (U87.CXCR4 cells) (Homo sapiens, UniProt P61073); test: Intracellular CXCL-12-induced calcium mobilization assay (FLIPR); format: cell-based; details: CXCL-12 25-50 ng/mL, read-out: IC50 CXCL-12 Ca2+ flux U87.CXCR4+
T1 construct: expressed in transfected cells; host or cells: U87 (U87.CXCR4)
Description: Intracellular CXCL-12-Induced Calcium Mobilization Assay
Intracellular calcium mobilization induced by chemokines or chemokine-derived peptides were evaluated using a calcium responsive fluorescent probe and a FLIPR system. The CXCR-4 transfected U87 cell line (U87.CXCR4) cells were seeded in gelatine-coated black-wall 96-well plates at 20,000 cells per well and incubated for 12 hours. Cells were then loaded with the fluorescent calcium probe Fluo-2 acetoxymethyl at 4 μM final concentration in assay buffer (Hanks' balanced salt solution with 20 mM HEPES buffer and 0.2% bovine serum albumin, pH 7.4) for 45 min at 37° C. The intracellular calcium mobilization induced by the CXCL-12 (25-50 ng/mL) was then measured at 37° C. by monitoring the fluorescence as a function of time in all the wells simultaneously using a fluorometric imaging plate reader (FLIPR Tetra, Molecular Devices).

[2] = molecular target: T2, CXCR4 (Jurkat cells expressing CXCR4) (Homo sapiens, UniProt P61073); test: Chemokine (CXCL12-AF647) binding inhibition assay; details: CXCL12-AF647 25 ng/mL, read-out: IC50 CXCL-12 binding Jurkat
T2 construct: Jurkat cells expressing CXCR4; endogenous in cells; host or cells: Jurkat
Description: Chemokine (CXCL12-AF647) Binding Inhibition Assay
Jurkat cells expressing CXCR4 were washed once with assay buffer (Hanks' balanced salt solution with 20 mM HEPES buffer and 0.2% bovine serum albumin, pH 7.4) and then incubated for 15 min at room temperature with the test compounds diluted in assay buffer at dose-dependent concentrations. Subsequently, CXCL12-AF647 (25 ng/mL) was added to the compound-incubated cells. The cells were incubated for 30 min at room temperature. Thereafter, the cells were washed twice in assay buffer, fixed in 1% paraformaldehyde in PBS, and analyzed on the FL4 channel of a FACSCalibur flow cytometer equipped with a 635-nm red diode laser (Becton Dickinson, San Jose, Calif., USA).
The percentages of inhibition of CXCL12-AF647 binding were calculated according to the formula: [1−((MFI−MFINC)/(MFIPC−MFINC))]×100 where MFI is the mean fluorescence intensity of the cells incubated with CXCL12-AF647 in the presence of the inhibitor, MFINC is the mean fluorescence intensity measured in the negative control (i.e., autofluorescence of unlabeled cells), and MFIPC is the mean fluorescence intensity of the positive control (i.e., cells exposed to CXCL12-AF647 alone).

[3] = in vitro; details: human, Caco-2, pH 7.4
Description: The goal of this assay was to evaluate the intestinal absorption potential of drug candidates using Caco-2 cell lines.
1. Prewarm Prewarm HBSS Buffer in 37° C. water bath
2. Sonicate Take compounds from −20° C., sonicate for a few minutes (no less than 1 minute)
• Donor solution buffer: For A-to-B Direction: HBSS buffer with 0.3% DMSO and 5 μM LY: add 150 μL DMSO and 50 μL LY (5 mM) into 50 ml HBSS buffer (pH 7.4). HBSS buffer with 0.1% DMSO and 5 μM LY: add 50 μL DMSO and 50 μL LY (5 mM) into 50 mL HBSS buffer (pH 7.4). For B-to-A Direction: HBSS buffer with 0.3% DMSO: add 150 μL DMSO into 50 ml HBSS buffer (pH 7.4). HBSS buffer with 0.1% DMSO: add 50 μL DMSO into 50 ml HBSS buffer (pH 7.4). Receiver Solution Buffer: For A-to-B Direction: Prepare HBSS buffer with 0.4% DMSO: add 200 μL DMSO into 50 ml HBSS buffer (pH 7.4). For B-to-A Direction: Prepare HBSS buffer with 0.4% DMSO and 5 μM LY: add 200 μL DMSO and 50 μL LY (5 mM) into 50 ml HBSS buffer (pH 7.4).
4. Measure TEER Take cell culture plate out of incubator, wash the cell monolayers with HBSS buffer, and then measure TEER values at Rm temperature. 5. Centrifuge Centrifuge the compound solution (from step 3) at 4000 rpm for 5 min before loading to donor chambers. 6. Dosing Add solution based on the volumes listed in the following table (make sure to take extra 100 μL of donor sample for TO as Backup).
7. Apical LYT0 samples To determine LY concentration in the apical chamber, take 100 μL sample from apical chambers into an opaque plate for LYT0. 8. Prewarm Prewarm apical and basolateral plates at 37° C. for about 5 min, then begin transport by placing the apical plate onto basolateral plate. 9. Incubation Keep the plates in incubator at 37° C. for 90 min. 10.
Prepare Working Solution in MeOH/H2O (1:1)
• Prepare 1×solution: 3 μL (20×)+57 μL of 0.4% DMSO HBSS+60 μL ACN with IS (Osalmid or Imipramine)−120 μL (1×) 11. Transport termination Separate the apical plate from the basolateral plate after 90-min incubation. 12. Measure LY Take 100 μL samples from basolateral plate to an opaque plate as LYT90. 13. Measure LY concentrations for LYT0 and LYT90 by Fluorometer (at excitation of 485 nm/emission of 535 nm). 14.
Study details: Test concentration 10 μM
Test systems: Caco-2/HBSS solution
Incubation conditions: 0, 90 min at 37° C.
Sample size: Duplicates (n=2)
Bioanalytical method: LC-MS/MS
For Millicell-24 Cell Culture Plates: surface area of the membrane=0.7 cm^2, VA=0.8 mL (A-to-B) or 0.4 mL (B-to-A)
The compound numbers correspond to the compound numbers in Table 1.

T1 sequence (P61073 whole entry): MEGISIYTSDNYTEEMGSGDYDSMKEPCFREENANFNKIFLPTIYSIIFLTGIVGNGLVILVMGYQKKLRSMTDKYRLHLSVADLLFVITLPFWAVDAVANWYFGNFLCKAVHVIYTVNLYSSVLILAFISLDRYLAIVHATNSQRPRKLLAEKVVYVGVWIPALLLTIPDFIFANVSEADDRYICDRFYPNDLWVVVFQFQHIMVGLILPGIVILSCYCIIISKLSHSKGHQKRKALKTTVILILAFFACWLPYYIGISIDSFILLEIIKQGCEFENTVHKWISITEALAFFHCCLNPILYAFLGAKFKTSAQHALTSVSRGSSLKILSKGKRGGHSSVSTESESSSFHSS
T2 sequence (P61073 whole entry): as above

Row | Compound | IC50 [1] [nM] | IC50 [2] [nM] | Papp A→B at 90 min, 10 μM [3] [×10⁻⁶ cm/s] | Papp B→A at 90 min, 10 μM [3] [×10⁻⁶ cm/s] | efflux ratio at 90 min, 10 μM [3]
1 | CN1CCN(c2c(CN3CCCC3c3ncc[nH]3)nc3ccccn23)CC1 (stereo not shown) [Compound I-68] | ≥ 1000 | 100 to 1000 | 0.1 to 10 | 10 to 30 | 0.1 to 10
2 | CN1CCN(c2c(CN3CCCC3c3nccn3C)nc3ccccn23)CC1 (stereo not shown) [Compound I-69] | 0.01 to 100 | 0.01 to 100 | 0.1 to 10 | 10 to 30 | 10 to 30
3 | c1ccc(C2CCCN2Cc2ncccc2-n2ccnc2)nc1 (stereo not shown) [Compound I-75] | ≥ 1000 | 100 to 1000 | 10 to 30 | > 30 | 0.1 to 10
4 | CN1CCN(c2c(CN3CCCC3c3ccc(F)cn3)nc3ccccn23)CC1 (stereo not shown) [Compound I-76] | 0.01 to 100 | 0.01 to 100 | 10 to 30 | 0.1 to 10 | 0.1 to 10
5 | CN1CC=C(c2c(CN3CCCC3c3ccccn3)nc3ccccn23)CC1 (stereo not shown) [Compound I-79] | 0.01 to 100 | 0.01 to 100 | 0.1 to 10 | > 30 | 0.1 to 10
6 | c1ccc(C2CCCN2Cc2nc3ccccn3c2-c2ccncc2)nc1 (stereo not shown) [Compound I-80] | 100 to 1000 | 100 to 1000 | 10 to 30 | > 30 | 0.1 to 10
7 | N#CCCc1c(CN2CCCC2c2ccccn2)nc2ccccn12 (stereo not shown) [Compound I-82] | ≥ 1000 | 100 to 1000 | 10 to 30 | > 30 | 0.1 to 10
8 | Cc1cccnc1C1CCCN1Cc1cn2c(CCC#N)cccc2n1 (stereo not shown) [Compound I-83] | ≥ 1000 | 100 to 1000 | 0.1 to 10 | > 30 | 0.1 to 10
9 | N#CCCc1cccc2nc(CN3CCCC3c3ccccn3)cn12 (stereo not shown) [Compound I-84] | ≥ 1000 | ≥ 1000 | 0.1 to 10 | > 30 | 0.1 to 10
10 | CN1CCN(c2c(CN3CCCC3c3ccccn3)nc3ccccn23)CC1=O (stereo not shown) [Compound I-85] | ≥ 1000 | 100 to 1000 | 0.1 to 10 | > 30 | 0.1 to 10
11 | O=C1CN(c2c(CN3CCCC3c3ccccn3)nc3ccccn23)CCN1 (stereo not shown) [Compound I-86] | ≥ 1000 | ≥ 1000 | 0.1 to 10 | 10 to 30 | 10 to 30
12 | Cc1cccnc1C1CCCN1Cc1nccn1Cc1ccncc1 (stereo not shown) [Compound I-87] | ≥ 1000 | 100 to 1000 | 10 to 30 | 10 to 30 | 0.1 to 10
13 | Cc1cccnc1C1CCCN1Cc1nccn1Cc1cccnc1 (stereo not shown) [Compound I-88] | ≥ 1000 | 100 to 1000 | 10 to 30 | 10 to 30 | 0.1 to 10
14 | Cc1cccnc1C1CCCN1Cc1nccn1Cc1ccccn1 (stereo not shown) [Compound I-89] | ≥ 1000 | 100 to 1000 | 10 to 30 | > 30 | 0.1 to 10
15 | c1ccc(C2CCCN2Cc2nc3ccccn3c2N2CCOCC2)nc1 (stereo not shown) [Compound I-91] | ≥ 1000 | 100 to 1000 | > 30 | > 30 | 0.1 to 10
16 | Cc1cccnc1CN1CCCC1c1nccn1CC1CCN(C)CC1 (stereo not shown) [Compound I-92] | 100 to 1000 | 0.01 to 100 | 0.1 to 10 | 10 to 30 | 0.1 to 10
17 | c1ccc(OCc2c(CN3CCCC3c3ccccn3)nc3ccccn23)nc1 (stereo not shown) [Compound I-94] | ≥ 1000 | ≥ 1000 | 10 to 30 | > 30 | 0.1 to 10
